Speed of sound and mass density data for five molecules are collected here from the NIST ThermoML archive (doi:10.1016/j.jct.2019.05.023).

The conditions of data set [1]: 101.3 kPa, Liquid; for speed of sound: Frequency=3 MHz, Single path-length method; for mass density: Vibrating tube method.
A short description of data set [2]: xn = mol fraction of the nth substance listed. To be noted: 101.3 kPa, Liquid, x1 = 1; for speed of sound: Frequency=3 MHz, Single path-length method; for mass density: Vibrating tube method.

± gives the expanded uncertainty stated by the source.

As for `CCn1cc[n+](C)c1.O=S(=O)([O-])C(F)(F)F` [1-ethyl-3-methylimidazolium trifluoromethanesulfonate], the speed of sound in data set [1] (298.15 K) is on record as 1436 ± 10 m/s; in data set [1] (303.15 K) it was 1425 ± 10 m/s; in data set [1] (308.15 K) it was 1413 ± 10 m/s; in data set [1] (313.15 K), 1402 ± 10 m/s; in data set [1] (318.15 K), 1391 ± 10 m/s. Besides, the mass density was 1383 ± 2 kg/m3 in data set [1] (298.15 K); 1379 ± 2 kg/m3 in data set [1] (303.15 K); 1374 ± 2 kg/m3 in data set [1] (308.15 K); 1370 ± 2 kg/m3 in data set [1] (313.15 K); 1366 ± 2 kg/m3 in data set [1] (318.15 K).

Regarding `CCn1cc[n+](C)c1.O=S(=O)([O-])C(F)(F)F` [1-ethyl-3-methylimidazolium trifluoromethanesulfonate] + CCCOCCO, the speed of sound in data set [2] (298.15 K) is listed as 1436 ± 10 m/s; in data set [2] (303.15 K) it was 1425 ± 10 m/s; in data set [2] (308.15 K) it was 1413 ± 10 m/s; in data set [2] (313.15 K) it was 1402 ± 10 m/s; in data set [2] (318.15 K), 1391 ± 10 m/s. The mass density came to 1383 ± 2 kg/m3 in data set [2] (298.15 K); 1379 ± 2 kg/m3 in data set [2] (303.15 K); 1374 ± 2 kg/m3 in data set [2] (308.15 K); 1370 ± 2 kg/m3 in data set [2] (313.15 K); 1366 ± 2 kg/m3 in data set [2] (318.15 K).

Take `CCn1cc[n+](C)c1.O=S(=O)([O-])C(F)(F)F` [1-ethyl-3-methylimidazolium trifluoromethanesulfonate] + CCOCCO: the speed of sound is 1436 ± 10 m/s in data set [2] (298.15 K); 1425 ± 10 m/s in data set [2] (303.15 K); 1413 ± 10 m/s in data set [2] (308.15 K); 1402 ± 10 m/s in data set [2] (313.15 K); 1391 ± 10 m/s in data set [2] (318.15 K). Besides, the mass density in data set [2] (298.15 K) worked out at 1383 ± 2 kg/m3; in data set [2] (303.15 K) it was 1379 ± 2 kg/m3; in data set [2] (308.15 K) it was 1374 ± 2 kg/m3; in data set [2] (313.15 K), 1370 ± 2 kg/m3; in data set [2] (318.15 K), 1366 ± 2 kg/m3.

Regarding `CCOCCO` [2-ethoxyethan-1-ol], the speed of sound is 1304 ± 10 m/s in data set [1] (298.15 K); 1287 ± 10 m/s in data set [1] (303.15 K); 1270 ± 10 m/s in data set [1] (308.15 K); 1252 ± 10 m/s in data set [1] (313.15 K); 1234 ± 10 m/s in data set [1] (318.15 K). For the same molecule, the mass density in data set [1] (298.15 K) was 926 ± 2 kg/m3; in data set [1] (303.15 K) it was 921 ± 2 kg/m3; in data set [1] (308.15 K) it was 917 ± 2 kg/m3; in data set [1] (313.15 K), 912 ± 2 kg/m3; in data set [1] (318.15 K), 907 ± 2 kg/m3.

As for `CCCOCCO` [2-propoxyethanol], the speed of sound in data set [1] (298.15 K) is listed as 1301 ± 10 m/s; in data set [1] (303.15 K) it was 1283 ± 10 m/s; in data set [1] (308.15 K), 1266 ± 10 m/s; in data set [1] (313.15 K), 1248 ± 10 m/s; in data set [1] (318.15 K), 1231 ± 10 m/s. Also, the mass density amounted to 908 ± 2 kg/m3 in data set [1] (298.15 K); 903 ± 2 kg/m3 in data set [1] (303.15 K); 899 ± 2 kg/m3 in data set [1] (308.15 K); 895 ± 2 kg/m3 in data set [1] (313.15 K); 890 ± 2 kg/m3 in data set [1] (318.15 K).
